This is an account of results in US8183387B2, “Phenylpyrazole derivatives” (Taisho Pharmaceutical Co., Ltd, priority 2007, dated 2012).

In the assay the target is human H3 receptor (Homo sapiens, UniProt Q9Y5N1). In words: H3 receptor binding test (R(−)-α-methyl[3H]histamine). The arrangement: purchased Euroscreen ES-392-M; host or cells: CHO-K1. The note with it: inhibition of R(−)-α-methyl[3H]histamine (2 nM) binding, membrane of human H3 receptor-expressing CHO-K1 cells. As for the experimental part:
A membrane preparation of human H3 receptor-expressing CHO-K1 cells (Euroscreen, ES-392-M, 15 μg protein/200 μl), R(−)-α-methyl[^3H]histamine (Amersham, TRK-1017, specific activity: 1.74 TBq/mmol, 2 nM) and a test drug were reacted at room temperature for 1 hour. After completion of the reaction, the reaction mixture was subjected to suction filtration through a 0.3% polyethyleneimine-treated glass filter (GF/C). The glass filter was washed five times with 50 mM Tris-HCl washing solution (pH 7.4) containing 5 mM EDTA. After washing, the glass filter was dried and a scintillator was added thereto, followed by measurement of radioactivity on the filter using a liquid scintillation counter.
A fixed concentration (2 nM) of R(−)-α-methyl[^3H]histamine was reacted under the above conditions with each test drug at various concentrations to obtain an inhibition curve.

Chain of human H3 receptor (Q9Y5N1 whole entry): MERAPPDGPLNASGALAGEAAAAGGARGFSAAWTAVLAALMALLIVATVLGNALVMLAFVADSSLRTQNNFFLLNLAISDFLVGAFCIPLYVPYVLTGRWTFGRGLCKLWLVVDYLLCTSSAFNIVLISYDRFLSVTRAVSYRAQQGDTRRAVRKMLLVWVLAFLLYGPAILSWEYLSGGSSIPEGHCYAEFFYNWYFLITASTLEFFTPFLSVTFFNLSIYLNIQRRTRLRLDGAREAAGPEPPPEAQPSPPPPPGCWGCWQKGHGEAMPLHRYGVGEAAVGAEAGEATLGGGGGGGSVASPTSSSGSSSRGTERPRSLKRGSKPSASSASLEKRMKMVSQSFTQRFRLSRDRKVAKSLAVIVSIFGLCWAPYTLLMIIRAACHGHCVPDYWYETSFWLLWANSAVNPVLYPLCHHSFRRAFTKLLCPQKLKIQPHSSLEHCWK

For the compound `CC1CCC(C)N1CCCOc1ccc(-n2cc(C(=O)NC(C)(C)C)cn2)cc1` (stereo not drawn) [Example 12, N-tert-butyl-1-{4-[3-(2,5-dimethylpyrrolidin-1-yl)propoxy]phenyl}-1H-pyrazole-4-carboxamide], the IC50 (usually the concentration at which inhibition is half-maximal) was determined as 19.3 nM. `CC1CCCN1CCCOc1ccc(-n2cc(C(=O)N(C)C)cn2)cc1` (stereo not drawn) [Example 19, 1-{4-[3-(2-methylpyrrolidin-1-yl)-propoxy]-phenyl}-1H-pyrazole-4-carboxylic acid dimethylamide]: the IC50 was determined as 5.1 nM. Turning to `C[C@@H]1CCCN1CCCOc1ccc(-n2cc(C(=O)NCCOCCO)cn2)cc1` [Example 69, N-[2-(2-hydroxyethoxy)ethyl]-1-{4-[3-(2-methylpyrrolidin-1-yl)propoxy]phenyl}-1H-pyrazole-4-carboxamide], the IC50 was found to be 4.6 nM. On to `C[C@@H]1CCCN1CCCOc1ccc(-n2cc(NC(=O)Cc3cccnc3)cn2)cc1` [Example 46, N-[1-(4-{3-[(2R)-2-methylpyrrolidin-1-yl]propoxy}phenyl)-1H-pyrazol-4-yl]-2-(pyridin-3-yl)acetamide], for which the IC50 came out at 1.4 nM. Next, `COc1ccc(C(=O)Nc2cnn(-c3ccc(OCCCN4CCCC4C)cc3)c2)cc1` (stereo not drawn) [Example 41, 4-methoxy-N-(1-{4-[3-(2-methylpyrrolidin-1-yl)propoxy]phenyl}-1H-pyrazol-4-yl)benzamide]: 2.1 nM; `CC1CCCN1CCCOc1ccc(-n2cc(NC(=O)c3ccc(C#N)cc3)cn2)cc1` (stereo not drawn) [Example 40, 4-cyano-N-(1-{4-[3-(2-methylpyrrolidin-1-yl)propoxy]phenyl}-1H-pyrazol-4-yl)benzamide]: 4.4 nM. As for `C[C@@H]1CCCN1CCCOc1ccc(-n2cc(NS(C)(=O)=O)cn2)cc1` [Example 48, N-[1-(4-{3-[(2R)-2-methylpyrrolidin-1-yl]propoxy}phenyl)-1H-pyrazol-4-yl]methanesulfonamide], the figure is 4.1 nM. On to `CC1CCCN1CCCOc1ccc(-n2cc(NS(=O)(=O)c3ccc(C#N)cc3)cn2)cc1` (stereo not drawn) [Example 50, 4-cyano-N-(1-{4-[3-(2-methylpyrrolidin-1-yl)propoxy]phenyl}-1H-pyrazol-4-yl)benzenesulfonamide], for which the IC50 worked out at 31.9 nM. Consider `CC1CCCN1CCCOc1ccc(-n2cc(C(=O)NC(C)(C)C)cn2)cc1` (stereo not drawn) [Example 11, N-tert-butyl-1-{4-[3-(2-methylpyrrolidin-1-yl)propoxy]phenyl}-1H-pyrazole-4-carboxamide], for which the IC50 came to 1.8 nM. As for `C[C@@H]1CCCN1CCCOc1ccc(-n2cc(C(=O)c3ccncc3)cn2)cc1` [Example 26, [1-(4-{3-[(2R)-2-methylpyrrolidin-1-yl]propoxy}phenyl)-1H-pyrazol-4-yl](pyridin-4-yl)methanone], the figure is 2.6 nM; as for `O=C1CCCN1c1cnn(-c2ccc(OCCCN3CCCC3)cc2)c1` [Example 32, 1-{1-[4-(3-pyrrolidin-1-ylpropoxy)phenyl]-1H-pyrazol-4-yl}pyrrolidine-2-one], 8.3 nM. With `C[C@@H]1CCCN1CCCOc1ccc(-n2cc(C(=O)c3ccccc3)cn2)cc1` [Example 24, [1-(4-{3-[(2R)-2-methylpyrrolidin-1-yl]propoxy}phenyl)-1H-pyrazol-4-yl](phenyl)methanone], the IC50 stood at 3.3 nM.

As to `C[C@@H]1CCCN1CCCOc1ccc(-n2cc(C(N)=O)cn2)cc1` [Example 2, 1-(4-{3-[(2R)-2-methylpyrrolidin-1-yl]propoxy}phenyl)-1H-pyrazole-4-carboxamide], the IC50 came out at 6.5 nM. Consider `C[C@@H]1CCCN1CCCOc1ccc(-n2cc(NC(=O)Cc3ccncc3)cn2)cc1` [Example 47, N-[1-(4-{3-[(2R)-2-methylpyrrolidin-1-yl]propoxy}phenyl)-1H-pyrazol-4-yl]-2-(pyridin-4-yl)acetamide], for which the IC50 was 1.5 nM. As for `C[C@@H]1CCCN1CCCOc1ccc(-n2cc(C(=O)N(CCO)CCO)cn2)cc1` [Example 20, 1-(4-{3-[(2R)-2-methylpyrrolidin-1-yl]propoxy}phenyl)-1H-pyrazole-4-carboxylic acid bis-(2-hydroxyethyl)-amide], the figure is 6.9 nM.
